# Reference: publication PMC5458211, “Mitochondrial VDAC1-based peptides: Attacking oncogenic properties in glioblastoma” (Oncotarget, 2017)
# Non-standard residues stand in square brackets, D forms with d. Residues, ends and D or L forms follow the SMILES beside them.
# Test system: U-87MG cells
# Assay: Cell death by propidium iodide (PI) staining and flow cytometry, U-87MG
# Format: cell-based, human
# Conditions: 6 h at 37°C, serum-free medium, means ± SD (n=3), Fig 1H, read-out: IC50 for inducing cell death
# From the text: Figure 1 VDAC1-based peptides induce dramatic cell death of several brain tumor-derived cell lines but to lesser extent in primary brain cells A. IHC staining of VDAC1 of human normal brain (n=13) or glioblastoma (n=41) in tissue array slides (Biomax), as described in Materials and methods available online in Supplemental information. Percentages of sections stained at the intensity indicated are shown. […] The VDAC1-derived sequences Δ(1-14)N-terminus and LP4 are in green and pink, respectively. The cell-penetrating peptides Antp and Tf are in orange and blue, respectively. The loop shape of LP4 stabilized by a tryptophan zipper is in purple. The amino acids of Δ(1-14)N-terminus, LP4 and Antp are in the D configuration. […] Cells were harvested, washed twice with PBS and cell death was analyzed by propidium iodide (PI) staining and flow cytometry. […] Cells were harvested, washed twice with PBS and cell death was analyzed by PI staining and flow cytometry. […]
# Sections were also hematoxylin-stained and visualized by microscopy. […] Quantitative analysis of immunoblots is shown (n=2-4). […] E. Quantitative analysis of immunoblots. […]
# […] The cells were then trypsinized, centrifuged (1500xg, 5 min), washed with PBS and analyzed for cell death using propidium iodide (PI) staining and flow cytometer (Beckton-Dickinson, San Jose, CA) and BD CellQuest Pro software. […]
compound,measurement,value
CC[C@@H](C)[C@@H](NC(=O)[C@@H](CCCCN)NC(=O)[C@H](NC(=O)[C@@H](CCC(N)=O)NC(=O)[C@@H](CCCNC(=N)N)NC(=O)[C@@H](CC(C)C)NC(=O)CNC(=O)[C@@H](Cc1ccccc1)NC(=O)CNC(=O)[C@@H](Cc1ccc(O)cc1)NC(=O)CNC(=O)[C@@H](CCCCN)NC(=O)[C@H](NC(=O)[C@@H](Cc1ccccc1)NC(=O)[C@H](NC(=O)[C@@H](CC(=O)O)NC(=O)[C@H](N)CCCNC(=N)N)C(C)C)[C@H](C)O)[C@H](C)CC)C(=O)N[C@H](Cc1c[nH]c2ccccc12)C(=O)N[C@H](Cc1ccccc1)C(=O)N[C@H](CCC(N)=O)C(=O)N[C@H](CC(N)=O)C(=O)N[C@H](CCCNC(=N)N)C(=O)N[C@H](CCCNC(=N)N)C(=O)N[C@H](CCSC)C(=O)N[C@H](CCCCN)C(=O)N[C@H](Cc1c[nH]c2ccccc12)C(=O)N[C@H](CCCCN)C(=O)N[C@H](CCCCN)C(=O)O [D-ΔN-Ter-Antp] (H-[dR][dD][dV][dF][dT][dK]G[dY]G[dF]G[dL][dR][dQ][dI][dK][dI][dW][dF][dQ][dN][dR][dR][dM][dK][dW][dK][dK]-OH; N-terminus and C-terminus assumed),IC50,3.2 ± 0.6 µM
